Here are results for one compound from ChEMBL document CHEMBL1212714, “Dentigerumycin: a bacterial mediator of an ant-fungus symbiosis” (2009).

In brackets after ≈: the same amount, converted by molar mass. Activity calls are given as the source filed them. The rule behind the calls is not given here.

The test system of assay [1] is Candida albicans. The assay is described as follows: Antifungal activity against Candida albicans ATCC 10231 at 37degC after 48 hrs by liquid culture assay. The class given is functional. The note with it: ATCC 10231, 48 h.
Another assay concerns Escovopsis. The assay is described as follows: Antifungal activity against Escovopsis CC011120-4 assessed as growth inhibition at 5 mg/ml by plate antifungal assay. In kind it is functional.
Assay [2] has as its system ant fungal cultivar CC011120-4 (mutualistic fungus). The assay is described as follows: Antifungal activity against ant fungal cultivar CC011120-4 assessed as growth inhibition at 5 mg/ml by plate antifungal assay.
Assay [3] can be described thus: Antifungal activity against Escovopsis at 37degC after 48 hrs by liquid culture assay. In kind it is functional.
The test system of assay [4] is Candida albicans. The assay is described as follows: Antifungal activity against Candida albicans ATCC 200955 at 37degC after 48 hrs by liquid culture assay. The class given is functional. The following applies: ATCC 200955, 48 h.
Assay [5] concerns Candida albicans. The assay is described as follows: Antifungal activity against wild type Candida albicans at 37degC after 48 hrs by liquid culture assay. In kind it is functional.

Consider `CCC[C@H]1CC[C@](O)([C@](C)(O)C(=O)N[C@@H]2C(=O)N3NCCC[C@@H]3C(=O)N(O)[C@@H](C)C(=O)N3NCCC[C@@H]3C(=O)N3NC[C@@H](O)C[C@H]3C(=O)N[C@@H](C)C(=O)O[C@H]2C(C)C)O[C@@H]1CC` [DENTIGERUMYCIN], for which the MIC (commonly the lowest concentration that inhibits growth of the organism) against Candida albicans [1] turned out to be 1.1 µM (≈ 0.97 µg/mL); in assay [3], 2.8 µM (≈ 2.47 µg/mL); with Candida albicans [4], 1.1 µM (≈ 0.97 µg/mL); in the assay with Candida albicans [5] it was 1.1 µM (≈ 0.97 µg/mL). Also, the “growth inhibition (GI)” value with Escovopsis is “Active”. Further, in assay [2], the “growth inhibition (GI)” value was “inactive”.
